Patent US20120308570A1, “METHODS FOR TREATING DISEASES” (priority 2009, published 2012)
Peptide text beside a SMILES is read from it. * marks the point of attachment. Cbz = O=C(OCc1ccccc1)*

Key:
Format in all cases: cell-based, mouse
[1] = system: iNOS degradation in Ssb-1T/+ and Ssb-2T/+ BMDM; test: iNOS degradation post-wash in SSB transgenic BMDM (Western blot); details: MG-132 10 μM post-wash
Method: FIG. 11. SSB-1 and SSB-2 regulation of iNOS expression is dependent on the proteasome. BMDM from (A) littermate controls (Ssb-1^+/+) and SSB-1-transgenic mice (Ssb-1^T/+) or (B) Ssb-1^+/+ and SSB-2-transgenic mice (Ssb-2^T/+) were incubated with IFNγ and LPS (20 ng/ml) for 16 h, washed, replenished with fresh medium with (+) or without (−) the proteasomal inhibitor MG-132 (10 μM) and lysed at the indicated times post-wash. Proteins were separated by SDS-PAGE and analysed by Western blot using anti-iNOS antibodies. Equivalent protein loading was confirmed by stripping and reprobing the membrane with anti-tubulin antibodies.
Bone marrow-derived macrophages were generated as described and re-plated at 1.0×10^6 cells/well on 6-well plates (Costar) in DME containing 10% FCS and 20% L-cell conditioned media. Cells were incubated with IFNγ and LPS as described, and lysed in KALB lysis buffer (Nicholson et al., 1995) containing protease inhibitors (Complete Cocktail tablets, Roche), 1 mM phenylmethylsulphonyl fluoride, 1 mM Na3VO4 and 1 mM NaF. Proteins were immunoprecipitated using anti-Flag antibody conjugated to Sepharose (M2; EASTMAN KODAK). Proteins were separated by sodium dodecyl sulphatepolyacrylamide gel electrophoresis (SDS-PAGE) under reducing conditions and electrophoretically transferred to Biotrace PVDF membranes (Pall Corp. Ann Arbor, Mich.). […]

Spsb1 mRNA = test: Spsb1 knockdown in BMDM by Q-PCR; details: 10 ng/ml LPS 4 h, compared to non-sense control shRNA, p<0.0001
Method: Bone marrow-derived macrophages were generated as described and replated at 1.0×10^6 cells/well on 6-well plates (Costar) in DME containing 10% FCS and 20% L-cell conditioned media. The following day, triplicate cultures were incubated with murine IFNγ (10 ng/ml) and LPS (20 ng/ml), unless otherwise indicated. Total cellular RNA was isolated using the RNeasy kit (QIAGEN, Valencia, Calif.) and first strand cDNA synthesis performed using Superscript II RNASE H— reverse transcriptase (Invitrogen, Carlsbad, Calif.) according to the manufacturer's instructions. Real-time PCR was performed on an ABI Prism 7900HT sequence detection system (Applied Biosystems, Foster City, Calif.). Cycling conditions were as follows: initial denaturation (95° C. for 15 min), followed by 40 cycles of 94° C. for 15 s, 50° C. (SSB-1, -4), 60° C. (SSB-2, -3) or 49° C. (GAPDH) for 30 s and 72° C. for 15 s with a transition rate of 20° C./s and a single fluorescence measurement, melting curve program (60° C.-95° C., with a heating rate of 0.1° C./s and continuous fluorescence measurement) and a final cooling step to 40° C. All PCR reactions were performed using the QuantiTect SYBR Green PCR Kit (QIAGEN) in 10 μl reactions containing […] of forward and reverse primers, 5 μl of QuantiTect Master Mix and 4 μl of cDNA (diluted 1 in 5). […]

iNOS protein in BMDM = test: iNOS expression in shRNA infected BMDM (Western blot)
Method: Bone marrow-derived macrophages were generated as described and re-plated at 1.0×10^6 cells/well on 6-well plates (Costar) in DME containing 10% FCS and 20% L-cell conditioned media. Cells were incubated with IFNγ and LPS as described, and lysed in KALB lysis buffer (Nicholson et al., 1995) containing protease inhibitors (Complete Cocktail tablets, Roche), 1 mM phenylmethylsulphonyl fluoride, 1 mM Na3VO4 and 1 mM NaF. Proteins were immunoprecipitated using anti-Flag antibody conjugated to Sepharose (M2; EASTMAN KODAK). Proteins were separated by sodium dodecyl sulphatepolyacrylamide gel electrophoresis (SDS-PAGE) under reducing conditions and electrophoretically transferred to Biotrace PVDF membranes (Pall Corp. Ann Arbor, Mich.). Membranes were blocked overnight in 10% w/v skim milk and incubated with primary antibody for 2 h. Antibody binding was visualized with either peroxidase-conjugated goat anti-rat immunoglobulin (Southern Biotech) or peroxidase-conjugated sheep anti-rabbit immunoglobulin (Chemicon, Melbourne, Australia), and the enhanced chemiluminescence (ECL) system (Amersham, Little Chalfont, Buckinghamshire, UK). To re-blot, the membrane was first stripped of antibodies in 0.1 M glycine, pH 2.9.
Oligonucleotides targeting SPSB 1 ([…] (SEQ ID NO:84)) were designed as previously described (27). shRNAmir constructs were created by annealing the oligonucleotides in 5× annealing buffer (0.5 M potassium acetate, 0.01 M magnesium acetate and 0.15 M HEPES pH 7.4) for 5 min at 95° C., followed by incubation for 10 min at 80° C. and a 5-7 h ramp from 80° C. to 4° C. (reducing by 0.5° C. every 2.5 min). Annealed oligonucleotides were subsequently subcloned into the LMP vector (Dickins et al; 2005 & 2006). Non-sense shRNAmir and luciferase control constructs in the LMS vector were a kind gift from Dr. Marnie Blewitt (Majewski et al, 2008) and Dr Ross Dickins (unpublished data) respectively. To create retrovirus, 293T cells were transfected as described previously (Majewski et al, 2008). The medium was replaced with DMEM containing 10% FBS and 20% L-cell conditioned medium 24 h after transfection and viral supernatants harvested the following day. Total bone marrow was collected and non-adherent haematopoietic cells were harvested by centrifugation and red blood cells removed by washing in red cell removal buffer (154.4 mM NH4Cl, 0.1 mM EDTA, 12 mM. NaHCO3). Retroviral supernatants were applied to culture dishes pre-treated with 32 μg/ml RetroNectin (Takara Biosciences, Shiga, Japan) and centrifuged for 1 h at 4000 g at 4° C. […]
To analyse the kinetics of iNOS induction in BMDM infected with an Spsb1 shRNA construct cells were stimulated with 100 ng/ml LPS or 25 μg/ml PolyIC for various times, then lysed and iNOS expression analysed by Western blot. […]

NO production in BMDM = test: Nitric oxide production in shRNA infected BMDM (Griess assay)
Method: As a measure of nitric oxide production, 100 μl of culture supernatants were assayed for nitrite by reaction with 10 μl of Griess reagent A (1% sulfanilamide in 5% phosphoric acid) for 10 min at room temperature, followed by the addition of 10 μl Griess reagent B [0.14% N-(1-naphthyl)ethylenediamine dihydrochloride], and nitrite content determined essentially as described (Scott et al., 2000).
Oligonucleotides targeting SPSB 1 ([…] (SEQ ID NO:84)) were designed as previously described (27). shRNAmir constructs were created by annealing the oligonucleotides in 5× annealing buffer (0.5 M potassium acetate, 0.01 M magnesium acetate and 0.15 M HEPES pH 7.4) for 5 min at 95° C., followed by incubation for 10 min at 80° C. and a 5-7 h ramp from 80° C. to 4° C. (reducing by 0.5° C. every 2.5 min). Annealed oligonucleotides were subsequently subcloned into the LMP vector (Dickins et al; 2005 & 2006). Non-sense shRNAmir and luciferase control constructs in the LMS vector were a kind gift from Dr. Marnie Blewitt (Majewski et al, 2008) and Dr Ross Dickins (unpublished data) respectively. To create retrovirus, 293T cells were transfected as described previously (Majewski et al, 2008). The medium was replaced with DMEM containing 10% FBS and 20% L-cell conditioned medium 24 h after transfection and viral supernatants harvested the following day. Total bone marrow was collected and non-adherent haematopoietic cells were harvested by centrifugation and red blood cells removed by washing in red cell removal buffer (154.4 mM NH4Cl, 0.1 mM EDTA, 12 mM. NaHCO3). Retroviral supernatants were applied to culture dishes pre-treated with 32 μg/ml RetroNectin (Takara Biosciences, Shiga, Japan) and centrifuged for 1 h at 4000 g at 4° C. Bone marrow cells were infected by co-culturing with the virus in the presence of 4 μg/ml 30 polybrene-containing medium for 24 h. […]
Using a Griess assay, NO production was measured in response to 20 ng/ml LPS and 25 μg/ml PolyIC in BMDM infected with non-sense or Spsb1 shRNA at 24 h and 48 h. […]

| Compound | effect on enhanced iNOS degradation [1] | Spsb1 expression (Spsb1 mRNA) | kinetics of iNOS clearance (iNOS protein in BMDM; 20 ng/ml LPS or 25 μg/ml PolyIC overnight, stimulus removed) | iNOS amount in degradation experiment (iNOS protein in BMDM; 20 ng/ml LPS or 25 μg/ml PolyIC overnight, stimulus removed, compared to non-sense) | iNOS protein amount during induction timecourse (iNOS protein in BMDM; 100 ng/ml LPS or 25 μg/ml PolyIC) | time of first observed iNOS expression post-treatment (iNOS protein in BMDM; 100 ng/ml LPS or 25 μg/ml PolyIC, non-sense shRNA control 8 h) [h] | NO production (NO production in BMDM; 24 h, LPS and PolyIC, compared to non-sense) | NO production (NO production in BMDM; 48 h, LPS, p=0.0446) | NO production (NO production in BMDM; 48 h, PolyIC) |
| --- | --- | --- | --- | --- | --- | --- | --- | --- | --- |
| CC(C)C[C@@H](C=O)NC(=O)[C@H](CC(C)C)NC(=O)[C@H](CC(C)C)NC(=O)OCc1ccccc1 [MG-132] (Cbz-Leu-Leu-Leu-aldehyde) | abrogated |  |  |  |  |  |  |  |  |
| Spsb1 shRNA: retroviral shRNAmir construct targeting SPSB1, CCAGATGCAGAGAATAAACTA (SEQ ID NO:84), in LMP vector |  | significantly reduced | essentially unchanged | increased amount of iNOS | more iNOS protein | 6 | increase | significant increase | increase |
